Four compounds from patent US20130071854A1, “METHODS FOR THE IDENTIFICATION AND CHARACTERIZATION OF HDAC INTERACTING COMPOUNDS” (priority 2009, published 2013) can be followed below.

Test [1] addresses MiDAC complex (HDAC1/2, DNTTIP1, CDYL, MIDEAS) (Homo sapiens, UniProt Q13547+Q92769). Briefly: Chemoproteomic binding profiling, K562 cell extract, SAHA/ITF2357 probe matrix (Kd app). The arrangement: Kd^app MIDEAS; other: protein MIDEAS; MiDAC complex; Kd^app DNTTIP1; other: protein DNTTIP1.
For another test, the target named is T1, HDAC6 (Homo sapiens, UniProt Q9UBN7).
T1 sequence (Q9UBN7 1-1215): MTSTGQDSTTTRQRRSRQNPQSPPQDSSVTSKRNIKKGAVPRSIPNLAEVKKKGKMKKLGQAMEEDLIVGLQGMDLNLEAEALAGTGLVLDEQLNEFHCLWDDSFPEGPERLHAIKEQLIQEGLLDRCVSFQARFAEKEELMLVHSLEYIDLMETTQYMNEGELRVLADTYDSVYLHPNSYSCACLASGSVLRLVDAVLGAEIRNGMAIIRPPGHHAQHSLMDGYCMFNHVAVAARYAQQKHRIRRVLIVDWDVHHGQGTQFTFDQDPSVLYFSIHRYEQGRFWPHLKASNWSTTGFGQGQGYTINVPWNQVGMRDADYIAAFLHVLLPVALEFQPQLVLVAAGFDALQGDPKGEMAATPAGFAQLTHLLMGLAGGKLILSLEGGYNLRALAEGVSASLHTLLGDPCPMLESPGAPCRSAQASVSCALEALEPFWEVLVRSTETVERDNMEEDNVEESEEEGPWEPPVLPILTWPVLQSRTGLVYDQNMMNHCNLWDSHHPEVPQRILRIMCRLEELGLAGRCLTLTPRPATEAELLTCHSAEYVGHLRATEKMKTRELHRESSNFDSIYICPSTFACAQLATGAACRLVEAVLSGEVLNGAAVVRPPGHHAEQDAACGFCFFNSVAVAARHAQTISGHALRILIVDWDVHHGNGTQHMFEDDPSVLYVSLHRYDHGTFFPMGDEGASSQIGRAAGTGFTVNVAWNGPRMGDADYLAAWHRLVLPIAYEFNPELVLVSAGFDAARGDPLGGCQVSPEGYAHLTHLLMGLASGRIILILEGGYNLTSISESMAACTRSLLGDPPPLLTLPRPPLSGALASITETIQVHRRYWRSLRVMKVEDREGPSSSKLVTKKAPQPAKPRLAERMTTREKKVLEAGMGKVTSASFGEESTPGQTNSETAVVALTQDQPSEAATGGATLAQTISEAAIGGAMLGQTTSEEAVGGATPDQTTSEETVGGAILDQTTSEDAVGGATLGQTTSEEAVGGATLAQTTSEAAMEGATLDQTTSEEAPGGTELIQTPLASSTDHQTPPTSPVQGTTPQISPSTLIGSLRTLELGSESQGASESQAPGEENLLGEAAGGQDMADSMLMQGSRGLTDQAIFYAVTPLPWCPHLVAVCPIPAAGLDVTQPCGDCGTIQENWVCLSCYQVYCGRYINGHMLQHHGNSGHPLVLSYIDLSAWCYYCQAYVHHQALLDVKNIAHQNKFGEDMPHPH
In words: Compound screening, competition binding with SAHA-beads, antibody dot-blot arrays, Jurkat and Ramos whole cell extract. The arrangement: endogenous in cells; Jurkat/Ramos whole cell extract. From the text:
To enable the discovery of novel selective HDACi we developed a high throughput variation of the chemoproteomics protocol in which MS/MS detection is replaced with multiplexed fluorescent antibody detection on “dot blot” type arrays. The method was applied to the screening of a focused compound library in whole cell extract of Jurkat and Ramos cells for inhibitors of HDAC1, 2, 3 and 6. Several hits were obtained with a few compounds displaying a notable degree of selectivity (FIG. 35a). […] The cellular potency for tubulin deacetylation correlated with the potency for one of the drugs' anti-inflammatory effects, the secretion of IFNα in peripheral blood mononuclear cells (FIG. 35d).
The compounds for screening was selected either for their potential to be Zinc chelators or based on a similarity search of the compound collections from Asinex Corp. (Winston-Salem, N.C., USA) and Enamine (Mammouth_Jct., NJ, USA), using a training set of 140 known HDAC inhibitors. Competition binding assays using SAHA-beads were performed essentially as described above but adapted to a 96-well format. 1 mg of cell lysate and 5 μl of beads were used per well. Compounds from the screening library including reference compounds as standards were added at 20 μM and 100 μM final concentration from 50×DMSO stocks. Each plate contained 8 positive (TSA 50 μM) and eight negative controls (2% DMSO). […]

For a further test, the system named is SIN3A. To be noted: K-562 cell lysate.
For test [2], the system named is histone acetylation, K562 cells. Briefly: Mapping of histone acetylation by LC-MS/MS of K562 cells treated with HDACi. The class given is cell-based, human. To be noted: K562 cells treated 6 hours, isobaric tagging and MS/MS.
In a further test the test system is GATAD2A. Briefly: Competition binding assay in cell lysate, affinity matrix, MS (Mi-2/NuRD interactor). The following applies: K-562 cell lysate.
The target in a further test is T2, APOBEC3C (Homo sapiens, UniProt Q9NRW3).
T2 construct: endogenous in cells
Briefly: Competition binding assay in cell lysate, affinity matrix, MS.

A further test has as its target T3, WDR5 (Homo sapiens, UniProt P61964).
T3 construct: endogenous in cells
The description is as above.

The subject of another test is SAP30. Briefly: Competition binding assay in cell lysate, affinity matrix, MS (Sin3 interactor). The arrangement: species or system human. To be noted: K-562 cell lysate.

SMILES strings stand for the structures. Where two headings read alike, the source gives them in different places.

As a reminder, the IC50 is the concentration that gives 50% inhibition. A low value points to greater potency in that assay.

T2 sequence (Q9NRW3 whole entry): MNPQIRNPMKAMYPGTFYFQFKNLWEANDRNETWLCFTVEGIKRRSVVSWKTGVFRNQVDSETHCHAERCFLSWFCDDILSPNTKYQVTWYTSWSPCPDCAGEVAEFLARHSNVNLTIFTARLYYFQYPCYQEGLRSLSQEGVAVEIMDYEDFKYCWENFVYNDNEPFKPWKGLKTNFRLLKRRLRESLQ

Turning to `CCCCOc1ccc(CC(=O)NO)cc1` [bufexamac], the Kd in test [1] (protein DNTTIP1, read-out: Kd^app DNTTIP1) is 418 µM; in test [1] (protein MIDEAS, read-out: Kd^app MIDEAS), 476 µM. In addition, on HDAC6, the “screen result for HDAC6 (in words)” value is “preferentially affect HDAC6”.
In the case of `O=C(CCCCCCC(=O)Nc1ccccc1)NO` [SAHA, suberoylanilide hydroxamic acid], the IC50 in the test with SIN3A worked out at 0.57 µM.
For the compound `CCCC(CCC)C(=O)O` [valproate, valproic acid], the “abundance of acetylated histone peptides (in words)” value in test [2] is reported as “more selective effect”.
As for `Nc1ccccc1NC(=O)c1ccc(CNC(=O)OCc2cccnc2)cc1` [MS-275], the IC50 with GATAD2A was 300 µM; at APOBEC3C, at least 300 µM; at WDR5 it was at least 300 µM; in the test on SAP30 it was 300 µM.
